From ChEMBL document CHEMBL1201862, “PubChem BioAssay data set” (2004) come the findings set out here.

Test systems include COLO 205; SNB-75; Malme-3M; NCI-H23; U-251; MDA-N; OVCAR-5; NCI-H226; BT-549; SF-539; EKVX; M14; HL-60; RXF 393; PC-3; MDA-MB-231.
Assay in all cases: growth of human tumour cells (NCI), 48 h

Structures are written as SMILES.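 Test compounds were applied to cells in 96-well plates for 48 hours at 5 doses. Abbreviation: GI50, concentration required for 50% inhibition of growth.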 Active and inactive are the calls of the source. Cut-off read from the data, not from the text of the source: active = GI50 up to about 1.1 µM and inactive = higher.

As for `N#Cc1c(C#N)c(SSc2c(C#N)c(C#N)c(N)n2-c2cccc3ccccc23)n(-c2cccc3ccccc23)c1N`, the GI50 in the assay with COLO 205 is 3.67 µM (inactive); with SNB-75, 5.62 µM (inactive); with Malme-3M, 1.85 µM (inactive); with NCI-H23 it was 11.2 µM (inactive); with U-251, 19.7 µM (inactive); in the assay with MDA-N it was 6.11 µM (inactive). The GI50 in the assay with OVCAR-5 was 24.2 µM (inactive); with NCI-H226, 30.2 µM (inactive); in the assay on BT-549, 5.83 µM (inactive); with SF-539 it was 15.7 µM (inactive); with EKVX, 5.51 µM (inactive); with M14 it was 3.08 µM (inactive). The GI50 in the assay on HL-60 was 2.33 µM (inactive); in the assay on RXF 393 it was 6.08 µM (inactive); in the assay with PC-3, 17.4 µM (inactive); with MDA-MB-231 it was 18.4 µM (inactive).

For the compound `COc1cc2cccc(N)c2cc1OC`, the GI50 in the assay with COLO 205, with SNB-75, with Malme-3M, with NCI-H23, with U-251 and with MDA-N was > 100 µM (inactive) in each case. The GI50 was > 100 µM (inactive) in the assay on OVCAR-5; > 100 µM (inactive) in the assay with NCI-H226; > 66.7 µM (inactive) in the assay with BT-549; > 100 µM (inactive) with SF-539; > 100 µM (inactive) with EKVX; > 100 µM (inactive) with M14. The GI50 with HL-60, in the assay with RXF 393, in the assay on PC-3 and with MDA-MB-231 was > 100 µM (inactive) in each case.

In the case of `CSC1=C(C#N)C(=S)N=C(N)C1C(=O)Nc1ccc(C)cc1` (configuration not stated), the GI50 in the assay on COLO 205, in the assay on SNB-75, in the assay with Malme-3M, in the assay on NCI-H23, with U-251 and with MDA-N was > 100 µM (inactive) in each case. In addition, the GI50 is > 100 µM (inactive) in the assay with OVCAR-5; 60.1 µM (inactive) in the assay with NCI-H226; > 100 µM (inactive) in the assay with BT-549; > 100 µM (inactive) in the assay on SF-539; > 100 µM (inactive) with EKVX; > 100 µM (inactive) in the assay on M14. In addition, the GI50 in the assay with HL-60, in the assay with RXF 393, with PC-3 and in the assay with MDA-MB-231 was > 100 µM (inactive) throughout.

Take `O=C1/C(=C\c2cccc(Oc3ccccc3)c2)S(=O)(=O)C(c2ccccc2)N1c1ccccc1Cl` (configuration not stated): the GI50 was 17.6 µM (inactive) with COLO 205; 20 µM (inactive) in the assay with SNB-75; 32.6 µM (inactive) in the assay with Malme-3M; 24.4 µM (inactive) in the assay with NCI-H23; 27.9 µM (inactive) with U-251; 21.2 µM (inactive) in the assay with MDA-N. In addition, the GI50 in the assay with OVCAR-5 was 33.7 µM (inactive); in the assay with NCI-H226, 29.6 µM (inactive); in the assay on BT-549, 43.1 µM (inactive); in the assay with SF-539, 5.83 µM (inactive); in the assay on EKVX, 22.3 µM (inactive); in the assay on M14, 28.6 µM (inactive). Further, the GI50 was 13.9 µM (inactive) in the assay on HL-60, 29 µM (inactive) with RXF 393, 29 µM (inactive) in the assay on PC-3 and 28.2 µM (inactive) in the assay on MDA-MB-231.

With `CCCCCCCCCCCCCCCCNC(=O)/C(=C\c1ccc(Cl)c(Cl)c1)NC(=O)c1ccccc1`, the GI50 is 35.1 µM (inactive) with COLO 205; 16.7 µM (inactive) in the assay with SNB-75; > 100 µM (inactive) with Malme-3M; 22.8 µM (inactive) with NCI-H23; 35.4 µM (inactive) with U-251; 68.7 µM (inactive) in the assay on MDA-N. The GI50 in the assay with OVCAR-5 was 47.2 µM (inactive); in the assay on NCI-H226 it was 23.6 µM (inactive); in the assay on BT-549 it was > 100 µM (inactive); in the assay with SF-539 it was 16.5 µM (inactive); in the assay on EKVX, 44.3 µM (inactive); in the assay on M14, > 100 µM (inactive). The GI50 is 0.431 µM (active) in the assay with HL-60, 15.7 µM (inactive) in the assay on RXF 393, 26.5 µM (inactive) in the assay on PC-3 and 18 µM (inactive) with MDA-MB-231.

As for `Cc1ccc(S(=O)(=O)n2cc(C=O)c(-c3cn(S(=O)(=O)c4ccc(C)cc4)cc3-c3cn(S(=O)(=O)c4ccc(C)cc4)cc3C=O)c2)cc1`, the GI50 in the assay on COLO 205 is 75.2 µM (inactive); with SNB-75, 29.6 µM (inactive); with Malme-3M, 24.3 µM (inactive); in the assay on NCI-H23, 23.7 µM (inactive); with U-251, 29.6 µM (inactive); in the assay with MDA-N it was 75.2 µM (inactive). In addition, the GI50 in the assay with OVCAR-5 was 85.3 µM (inactive); in the assay on NCI-H226, 29.6 µM (inactive); in the assay on BT-549 it was 60.1 µM (inactive); in the assay with SF-539, 25.9 µM (inactive); in the assay with EKVX, 16.7 µM (inactive); with M14, 29.6 µM (inactive). Besides, the GI50 in the assay with HL-60 was 25.4 µM (inactive); in the assay on RXF 393, 29.5 µM (inactive); with PC-3, 27.5 µM (inactive); in the assay on MDA-MB-231, > 100 µM (inactive).

As to `Cc1cc(N(CCOS(C)(=O)=O)CCOS(C)(=O)=O)ccc1/C=N/c1ccc(-c2csc(-c3ccc(Br)cc3)n2)cc1`, the GI50 in the assay with COLO 205 was 1.22 µM (inactive); in the assay on SNB-75, 3.99 µM (inactive); with Malme-3M, 21.9 µM (inactive); with NCI-H23, 5.07 µM (inactive); in the assay on U-251, 15.2 µM (inactive); in the assay on MDA-N, 14.7 µM (inactive). Besides, the GI50 in the assay with OVCAR-5 was 17.3 µM (inactive); in the assay with NCI-H226, 12.6 µM (inactive); in the assay on BT-549 it was 20.5 µM (inactive); with SF-539 it was 1.17 µM (inactive); in the assay with EKVX, 6.24 µM (inactive); with M14 it was 9.08 µM (inactive). The GI50 with HL-60 is 2.58 µM (inactive); in the assay with RXF 393, 1.78 µM (inactive); in the assay on PC-3 it was 19.5 µM (inactive); with MDA-MB-231, 15.5 µM (inactive).

Consider `O=[N+]([O-])c1ccc2c(c1)c1nn2CCCCOc2nn(c3ccc([N+](=O)[O-])cc23)CCCCO1`, for which the GI50 in the assay on COLO 205, with SNB-75, with Malme-3M, in the assay on NCI-H23, in the assay with U-251 and in the assay with MDA-N was > 100 µM (inactive) each time. Moreover, the GI50 in the assay with OVCAR-5, in the assay on NCI-H226, in the assay with BT-549, with SF-539, with EKVX and in the assay with M14 was > 100 µM (inactive) in each case. Besides, the GI50 in the assay with HL-60, in the assay with RXF 393, in the assay with PC-3 and in the assay on MDA-MB-231 was > 100 µM (inactive) throughout.

Turning to `COc1cc(OC)c(/C=C\c2cc(/C=C/c3c(OC)cc(OC)cc3OC)c3ccccc3[n+]2C)c(OC)c1`, the GI50 in the assay with COLO 205 is 1.67 µM (inactive); in the assay with SNB-75 it was 2.77 µM (inactive); in the assay with Malme-3M it was 1.96 µM (inactive); with NCI-H23 it was 2.76 µM (inactive); with U-251 it was 1.28 µM (inactive); in the assay on MDA-N, 2.65 µM (inactive). For the same compound, the GI50 was 13.2 µM (inactive) in the assay on OVCAR-5; 5.96 µM (inactive) in the assay on NCI-H226; 4.1 µM (inactive) in the assay on BT-549; 2.22 µM (inactive) with SF-539; 2.99 µM (inactive) in the assay on EKVX; 2.56 µM (inactive) in the assay on M14. Besides, the GI50 in the assay on HL-60 is 2 µM (inactive); in the assay with RXF 393, 3.41 µM (inactive); with PC-3, 2.6 µM (inactive); in the assay on MDA-MB-231 it was 4.03 µM (inactive).

Regarding `CN(C(=O)CCC(=O)O)c1ccccc1C(=O)O`, the GI50 with COLO 205, in the assay on SNB-75, in the assay on Malme-3M, with NCI-H23, in the assay on U-251 and in the assay with MDA-N was > 100 µM (inactive) each time. For the same compound, the GI50 in the assay with OVCAR-5, with NCI-H226, in the assay on BT-549, in the assay on SF-539, in the assay with EKVX and with M14 was > 100 µM (inactive) throughout. Besides, the GI50 in the assay with HL-60, with RXF 393, with PC-3 and in the assay with MDA-MB-231 was > 100 µM (inactive) in each case.

`O=C(CCc1ccccc1)n1cccc1CO`: the GI50 with COLO 205, with SNB-75, in the assay on Malme-3M, with NCI-H23, in the assay on U-251 and with MDA-N was > 100 µM (inactive) throughout. In addition, the GI50 in the assay with OVCAR-5, in the assay with NCI-H226, in the assay with BT-549, in the assay on SF-539, with EKVX and with M14 was > 100 µM (inactive) each time. Moreover, the GI50 is > 100 µM (inactive) in the assay on HL-60, 93.3 µM (inactive) in the assay on RXF 393, > 100 µM (inactive) in the assay on PC-3 and > 100 µM (inactive) with MDA-MB-231.

Take `C[C@]12CC[C@H]3[C@@H](CC=C4C[C@@H](O)CC[C@@]43C)[C@@H]1C/C(=C\c1ccncc1)[C@@H]2O`: the GI50 is 10.6 µM (inactive) with COLO 205; 27.1 µM (inactive) with SNB-75; 22.6 µM (inactive) with Malme-3M; 13.7 µM (inactive) in the assay on NCI-H23; 16.5 µM (inactive) in the assay with U-251; 21.8 µM (inactive) with MDA-N. Further, the GI50 is 32.7 µM (inactive) in the assay on OVCAR-5; 17.7 µM (inactive) in the assay on NCI-H226; 3.51 µM (inactive) with BT-549; 16.9 µM (inactive) with SF-539; 14.8 µM (inactive) in the assay on EKVX; 16.5 µM (inactive) in the assay with M14. In addition, the GI50 in the assay on HL-60 was 10.2 µM (inactive); with RXF 393, 18.1 µM (inactive); in the assay with PC-3, 19.1 µM (inactive); with MDA-MB-231 it was 28.8 µM (inactive).
